Laboratory results from ChEMBL document CHEMBL1158561, “Synthesis of 4-(3-biaryl)quinoline sulfones as potent liver X receptor agonists” (Bioorg Med Chem Lett, 2010).

Assays:
[1] = Half life in human liver microsome; format: ADME; conditions: liver microsomes
[2] = Half life in rat liver microsome; format: ADME; conditions: liver microsomes
[3] = target: T1, Oxysterols receptor LXR-alpha (Homo sapiens, UniProt Q13133); assay: Displacement of [3H]T0901317 from LXRalpha ligand binding domain
T1 sequence (Q13133 whole entry): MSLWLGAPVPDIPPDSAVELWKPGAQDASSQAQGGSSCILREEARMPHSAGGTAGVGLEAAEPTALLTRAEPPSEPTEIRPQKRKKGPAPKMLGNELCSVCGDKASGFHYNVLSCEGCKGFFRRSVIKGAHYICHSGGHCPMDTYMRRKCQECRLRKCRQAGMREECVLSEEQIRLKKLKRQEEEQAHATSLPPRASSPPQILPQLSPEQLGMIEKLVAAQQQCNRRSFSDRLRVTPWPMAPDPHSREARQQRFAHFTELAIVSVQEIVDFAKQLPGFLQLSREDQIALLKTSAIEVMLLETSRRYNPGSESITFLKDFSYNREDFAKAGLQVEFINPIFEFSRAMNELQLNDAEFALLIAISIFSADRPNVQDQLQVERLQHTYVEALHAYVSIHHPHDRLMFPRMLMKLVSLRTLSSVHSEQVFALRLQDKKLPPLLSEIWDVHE

[4] = system: J774; assay: cells; conditions: Mus musculus
[5] = system: HepG2; assay: cells; conditions: Homo sapiens
[6] = system: Huh-7; assay: Upregulation of SREB1c mRNA level in human HuH7 cells; format: functional, cell-based
[7] = target: Oxysterols receptor LXR-beta (Homo sapiens, UniProt P55055); assay: Displacement of [3H]T0901317 from LXRbeta ligand binding domain
Sequence of Oxysterols receptor LXR-beta (P55055 whole entry, the tested form may be a part): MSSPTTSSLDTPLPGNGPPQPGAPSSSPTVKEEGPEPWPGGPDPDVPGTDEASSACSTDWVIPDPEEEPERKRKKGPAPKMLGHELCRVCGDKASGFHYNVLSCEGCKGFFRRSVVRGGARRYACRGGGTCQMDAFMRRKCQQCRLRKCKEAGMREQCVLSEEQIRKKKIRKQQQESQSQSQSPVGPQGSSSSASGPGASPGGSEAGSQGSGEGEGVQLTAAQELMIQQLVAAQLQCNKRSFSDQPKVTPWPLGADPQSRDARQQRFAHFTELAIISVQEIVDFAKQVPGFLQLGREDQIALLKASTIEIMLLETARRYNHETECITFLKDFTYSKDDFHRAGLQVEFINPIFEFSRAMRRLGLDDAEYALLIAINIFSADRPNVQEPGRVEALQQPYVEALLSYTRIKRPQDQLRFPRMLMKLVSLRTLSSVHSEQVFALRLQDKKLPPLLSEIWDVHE

[8] = Half life in C57 mouse at 10 mg/kg, po; format: ADME, organism-based; parameters: dose 10 mg/kg, route oral; conditions: in vivo
[9] = AUC (0 to infinity) in C57 mouse at 10 mg/kg, po; format: ADME, organism-based; parameters: time infinity, dose 10 mg/kg, route oral; conditions: plasma
[10] = Oral bioavailability in C57 mouse at 10 mg/kg; format: ADME, organism-based; conditions: in vivo
[11] = Tmax in C57 mouse at 10 mg/kg, po; format: ADME, organism-based; parameters: dose 10 mg/kg, route oral; conditions: in vivo
[12] = Cmax in C57 mouse at 10 mg/kg, po; format: ADME, organism-based; parameters: dose 10 mg/kg, route oral; conditions: in vivo

SMILES | half-life [1] [min] | half-life [2] [min] | EC50 [4] [nM] | EC50 [5] [nM] | EC50 [6] [nM] | also measured
Cc1cnc2c(C(F)(F)F)cccc2c1-c1cccc(-c2cc(S(C)(=O)=O)c(F)cc2F)c1 | > 30 | > 30 |  |  |  | 
CCS(=O)(=O)c1cccc(-c2cccc(-c3c(C)cnc4c(C(F)(F)F)cccc34)c2)c1 | > 30 | > 30 | 190 | 190 | 250 | 
O=S(=O)(c1ccccc1)N(CC(F)(F)F)c1ccc(C(O)(C(F)(F)F)C(F)(F)F)cc1 [T091317] | > 30 | > 30 |  | 107 | 36 | 
CCc1cnc2c(C(F)(F)F)cccc2c1-c1cccc(-c2cccc(S(C)(=O)=O)c2)c1 | > 30 | > 30 | 0.7 | 0.7 | 8 | 
CS(=O)(=O)c1cccc(-c2cccc(-c3c(Cc4ccccc4)cnc4c(C(F)(F)F)cccc34)c2)c1 |  | 16 |  |  |  | 
CCCc1cnc2c(C(F)(F)F)cccc2c1-c1cccc(-c2cccc(S(C)(=O)=O)c2)c1 | > 30 | > 30 | 0.4 | 0.4 | 8 | 
CS(=O)(=O)c1ccc(-c2cccc(-c3c(Cc4ccccc4)cnc4c(C(F)(F)F)cccc34)c2)cc1 | 27 | 7 | 571 | 571 | 571 | 
CC(C)c1cnc2c(C(F)(F)F)cccc2c1-c1cccc(-c2cccc(S(C)(=O)=O)c2)c1 | > 30 | > 30 | 0.5 | 0.5 | 6 | 

The next lines start with results.

half-life [1] [min] | half-life [2] [min] | EC50 [4] [nM] | EC50 [5] [nM] | EC50 [6] [nM] | SMILES | also measured
> 30 | 19 |  |  |  | Cc1cnc2c(C(F)(F)F)cccc2c1-c1cccc(-c2ccc(F)c(S(C)(=O)=O)c2)c1 | 
> 30 |  |  |  |  | COc1ccc(-c2cccc(-c3c(C)cnc4c(C(F)(F)F)cccc34)c2)cc1S(C)(=O)=O | IC50 [3]: > 1000 nM
> 30 | > 30 | 156 | 156 | 521 | CCS(=O)(=O)c1cccc(-c2cccc(-c3ccnc4c(C(F)(F)F)cccc34)c2)c1 | 
 | > 30 | 23 | 23 | 52 | Cc1cnc2c(C(F)(F)F)cccc2c1-c1cccc(-c2cccc(S(C)(=O)=O)c2)c1 | 
> 30 | > 30 |  |  |  | CS(=O)(=O)c1ccc(-c2cccc(-c3ccnc4c(C(F)(F)F)cccc34)c2)cc1 | IC50 [7]: > 1000 nM; IC50 [3]: > 1000 nM
> 30 | > 30 | 77 | 77 | 440 | CS(=O)(=O)c1cccc(-c2cccc(-c3ccnc4c(C(F)(F)F)cccc34)c2)c1 | half-life [8]: 834 min; AUC(0-inf) [9]: 3010 ng·h/mL; bioavailability [10]: 100%; Tmax [11]: 60 min; Cmax [12]: 106 ng/mL
> 30 | > 30 | 11 | 133 | 132 | CS(=O)(=O)c1cc(-c2cccc(-c3ccnc4c(C(F)(F)F)cccc34)c2)c(F)cc1F | 
> 30 | > 30 |  |  |  | Cc1cnc2c(C(F)(F)F)cccc2c1-c1cccc(-c2ccc(S(C)(=O)=O)cc2)c1 | IC50 [3]: > 1000 nM
> 30 | 12 | 140 | 41 |  | CS(=O)(=O)c1cc(-c2cccc(-c3ccnc4c(C(F)(F)F)cccc34)c2)ccc1F | 
> 30 | 27 |  |  |  | Cc1ccc(-c2cccc(-c3c(C)cnc4c(C(F)(F)F)cccc34)c2)cc1S(C)(=O)=O | 
